In US4386103A, “Dichloroamino acid derivatives useful as potent germicidal and fungicidal agents” (Merck & Co., Inc., priority 1981, dated 1983):

Experiments:
Assay type in all cases: cell-based
[1] = test system: Bacillus subtilis; assay: Contact germicidal screen, Bacillus subtilis ATCC No. 60511
Procedure: (§1) The organisms used in the contact germicidal screen are all maintained as stock cultures on nutrient agar […] 4° C. They are transferred and biochemically diagnosed monthly. The five organisms used are: The media used are: […] Overnight cultures of the test organisms are grown in tryptose phosphate broth. After 15-16 hours, the cultures are centrifuged at […] for 15 minutes, and the supernatant replaced with fresh warm (37° C.) media. After two hours of incubation, the absorbance of the culture at 650 nm is determined and diluted with nutrient broth to 1×10^7 colony forming units per ml (using a previous determined standard curve: colony forming units/ml vs. absorbance at 650). The diluted cultures are maintained at 4°-8° C. throughout the screen. The compounds are weighed into sterile 100 ml volumetric flasks, and immediately before screening dissolved in one of the following buffers: 0.1 M NaOAc pH 4.6 or 0.1 M NaH2 PO4 pH 7.0. If solubility poses a problem, 10-30% methanol is used to effect solution. Two denaturing agents are also tested: […] Horse Serum restored with 100 ml distilled water and 10% Trition×100. When used, 2.5 ml of the denaturing agent is mixed with 2.5 ml of double strength test solution thirty minutes before the bacterial suspension is added. The screen is initiated when 0.2 ml of the bacterial suspension is added to 5.0 ml of the test solution contained in a sterile 25 ml glass stoppered flask. At intervals of 0.5, 2.5, 5.0, 10.0 and 15.0 minutes, a loopful of the inoculated test solution is subcultured into 5 ml of sterile nutrient broth and mixed with a vortex, the high dilution serving to stop the action of the compound. All of the subculture tubes are incubated at 37° C. and checked for signs of growth by turbidity at 1, 3, 5 and 7 days. The earliest subculture time at which no growth is present is considered the endpoint and is recorded as the sterilization time. An aliquot of 0.2 ml of the diluted culture is transferred to 5 ml of buffer to simulate 0.2 ml in 5 ml of test solution. (a) Purity: A loopful of the inoculated buffer is streaked onto nutrient agar to check colony morphology and lack of contaminants. (b) Viability: A loopful of the inoculated buffer is subcultured to 5 ml of nutrient broth as in the screen and incubated at 37° C. for 24 hours. (c) Dilution of the Test Solution: A loopful of the test solution is transferred to a 5 ml tube of nutrient broth, and a loopful of the inoculated buffer is transferred to the same tube of broth. […] (d) Purity of Organisms in the Test Solution: After the 15 minute subculture, a loopful of the inoculated test solution is streaked onto nutrient agar to insure that contamination has not occurred during the screen. (e) lack of Bactericidal Activity of Buffers and Other Solvents: Before a buffer or other solvent is used as a diluent, it is screened against the five organisms to insure that the buffer or solvent has no antibacterial activity itself.

[2] = test system: Pseudamonas aeruginosa; assay: Contact germicidal screen, Pseudamonas aeruginosa ATCC No. 14502
Procedure: as §1

[3] = test system: Candida albican; assay: Contact fungicidal screen, Candida albican; details: 0.1M NaOAc pH 4.6
Procedure: The organisms used in the Contact Fungicidal Screen are a dermatophyte, trychophyton mentagrophytes, frequently associated with athlete's foot; a yeast, Candida albican, causative agent of thrush and vaginitis; a phycomycete, Rhizopus oryzae, commonly known as black bread mold; an ascomycete, Aspergillus fumagatis, found in chicken droppings and causing lung infections; and another dermatophyte, Microsporum canis, which causes ringworm. These organisms are maintained as stock cultures at 4° C. on agar slants of the following composition: dextrose 2%, Neopeptone (Difco) 1%, agar 2%. Fluid medium of the same nutrient composition (without agar) was used to test the viability of the organisms after exposure to the fungicide. This medium is also known as Sabouraud's medium.
The Candida albican is grown in Sabouraud's liquid medium at 25°-30° C. for three days. At the end of the incubation period the cell suspension is centrifuged at 200 G and washed with sterile physiological saline (0.85% NaCl). The density of the cell suspension is determined by counting in a hemacytometer. The suspension is stored a 4° C. until it is used, at which time it is diluted with sterile physiological saline to a density of 5×10^6 cells per ml.
The compounds are weighed into heat sterilized 100 ml volumetric flasks and immediately before screening dissolved in 0.1 M NaOAc pH 4.6 buffer (test solutions).
The Aspergillus, Candida, Microsporum and Rhizopus species are screened in a slightly different manner. Basically, the procedure for the Contact Germicidal Efficiency Screen is utilized. After the test solutions are made up, 5 ml aliquots are pipetted into heat sterilized 25 ml glass stoppered erlenmeyer flasks. The screen is initiated when 0.5 ml of the 5×10^6 cell (spore) per ml suspension is added to the flask containing 5 ml of the test solution. At intervals of 0.5, 2.5, 5.0, 10.0 and 15.0 minutes, a 4 mm loopful of the inoculated test solution is subcultured into 7 mL of sterile fluid Sabouraud's medium and mixed on a vortex, the high dilution serving to stop the action of the compound. The subculture tubes are incubated at 25°-30° C. for ten days with daily observation for mycelial growth. The earliest subculture time at which no growth is present is considered the endpoint and is recorded as the sterilization time.
To insure the viability of the culture, a 0.5 ml aliquot of the 5×10^6 cells (spores) per ml suspension is transferred to 5 ml of the pH 4.6 buffer. A loopful of the inoculated buffer is then subcultured to 7 ml of fluid Sabouraud's medium and incubated at 25°-30° C. for ten days. To insure that the dilution of the test solution into the subculture medium does stop the action, a loopful of the test solution and a loopful of the inoculated buffer are transferred into the same subculture tube. This tube is also incubated at 25°-30° C. for ten days.

[4] = 10.0+ PPM, 0.1M NaOAc pH 4.6, screened simultaneously with four other compounds
[5] = 51.0 PPM, Triton X100 (10% solution):pH 4.6 buffer 1:1
[6] = 51.0 PPM, horse serum:pH 4.6 buffer 1:1
[7] = 300 PPM with 50% Horse Serum, 0.1M NaOAc pH 4.6
[8] = 300 PPM with 50% Triton X100, 0.1M NaOAc pH 4.6
[9] = 300 PPM, pH 4.6 buffer with 10% serum
[10] = 300 PPM, pH 4.6 buffer with 20% serum
[11] = 300 PPM, pH 4.6 buffer with 35% serum
[12] = 304.6 PPM, horse serum:pH 4.6 buffer 1:1
[13] = 304.8 PPM, Triton X100 (10% solution):pH 4.6 buffer 1:1
[14] = 606.9 PPM, pH 4.6 buffer with 33% serum
[15] = 899.25 PPM, pH 4.6 buffer with 25% serum
[16] = 1000 PPM with 50% Horse Serum, 0.1M NaOAc pH 4.6
[17] = 1001.2 PPM, horse serum:pH 4.6 buffer 1:1
[18] = 1016.0 PPM, 0.1M NaH2PO4 pH 7.0

## CC(C)(CC(=O)O)N(Cl)Cl [(II)]
[1]; 1.8 PPM, 0.1M NaOAc pH 4.6
  Sterilization Time: 5.0 min
[1]; 4.5 PPM, 0.1M NaOAc pH 4.6
  Sterilization Time: 2.5 min
[1]; [4]
  Sterilization Time: 2.5 min
[1]; 10 PPM, 0.1M NaOAc pH 4.6
  Sterilization Time (summary): 2.5 min
[1]; 10.0 PPM, 0.1M NaOAc pH 4.6
  Sterilization Time: 2.5 min
[1]; 12.2 PPM, 0.1M NaOAc pH 4.6
  Sterilization Time: 2.5 min
[1]; 32.1 PPM, 0.1M NaOAc pH 4.6
  Sterilization Time: 0.5 min
[1]; [5]
  Sterilization Time: 0.5 min
[1]; [6]
  Sterilization Time: 15 min
[1]; 71.7 PPM, 0.1M NaOAc pH 4.6
  Sterilization Time: 0.5 min
[1]; 100 PPM, 0.1M NaOAc pH 4.6
  Sterilization Time (summary): 0.5 min
[1]; 104.7 PPM, 0.1M NaOAc pH 4.6
  Sterilization Time: 0.5 min
[1]; 107.8 PPM, 0.1M NaH2PO4 pH 7.0
  Sterilization Time: 5.0 min
[1]; 298.9 PPM, 0.1M NaOAc pH 4.6
  Sterilization Time: 0.5 min
[1]; [7]
  Sterilization Time (summary): 2.5 min
[1]; [8]
  Sterilization Time (summary): 0.5 min
[1]; [9]
  Sterilization Time: 0.5 min
[1]; [10]
  Sterilization Time: 0.5 min
[1]; [11]
  Sterilization Time: 2.5 min
[1]; [12]
  Sterilization Time: 2.5 min
[1]; [13]
  Sterilization Time: 0.5 min
[1]; 316.6 PPM, 0.1M NaH2PO4 pH 7.0
  Sterilization Time: 2.5 min
[1]; [14]
  Sterilization Time: 0.5 min
[1]; [15]
  Sterilization Time: 0.5 min
[1]; [16]
  Sterilization Time (summary): 0.5 min
[1]; 1000 PPM, 0.1M NaOAc pH 4.6
  Sterilization Time (summary): 0.5 min
[1]; [17]
  Sterilization Time: 0.5 min
[1]; 1014.8 PPM, 0.1M NaOAc pH 4.6
  Sterilization Time: 0.5 min
[1]; [18]
  Sterilization Time: 0.5 min
[2]; 1.8 PPM, 0.1M NaOAc pH 4.6
  Sterilization Time: 15 min
[2]; 4.5 PPM, 0.1M NaOAc pH 4.6
  Sterilization Time: 5.0 min
[2]; [4]
  Sterilization Time: 2.5 min
[2]; 10 PPM, 0.1M NaOAc pH 4.6
  Sterilization Time (summary): 2.5 min
[2]; 10.0 PPM, 0.1M NaOAc pH 4.6
  Sterilization Time: 2.5 min
[2]; 12.2 PPM, 0.1M NaOAc pH 4.6
  Sterilization Time: 2.5 min
[2]; 32.1 PPM, 0.1M NaOAc pH 4.6
  Sterilization Time: 2.5 min
[2]; [5]
  Sterilization Time: 2.5 min
[2]; [6]
  Sterilization Time: 15 min
[2]; 71.7 PPM, 0.1M NaOAc pH 4.6
  Sterilization Time: 0.5 min
[2]; 100 PPM, 0.1M NaOAc pH 4.6
  Sterilization Time (summary): 0.5 min
[2]; 104.7 PPM, 0.1M NaOAc pH 4.6
  Sterilization Time: 0.5 min
[2]; 107.8 PPM, 0.1M NaH2PO4 pH 7.0
  Sterilization Time: 15 min
[2]; 298.9 PPM, 0.1M NaOAc pH 4.6
  Sterilization Time: 0.5 min
[2]; [7]
  Sterilization Time (summary): 15 min
[2]; [8]
  Sterilization Time (summary): 0.5 min
[2]; [9]
  Sterilization Time: 0.5 min
[2]; [10]
  Sterilization Time: 2.5 min
[2]; [11]
  Sterilization Time: 10.0 min
[2]; [12]
  Sterilization Time: 15 min
[2]; [13]
  Sterilization Time: 0.5 min
[2]; 316.6 PPM, 0.1M NaH2PO4 pH 7.0
  Sterilization Time: 5.0 min
[2]; [14]
  Sterilization Time: 2.5 min
[2]; [15]
  Sterilization Time: 0.5 min
[2]; [16]
  Sterilization Time (summary): 2.5 min
[2]; 1000 PPM, 0.1M NaOAc pH 4.6
  Sterilization Time (summary): 0.5 min
[2]; [17]
  Sterilization Time: 2.5 min
[2]; 1014.8 PPM, 0.1M NaOAc pH 4.6
  Sterilization Time: 0.5 min
[2]; [18]
  Sterilization Time: 2.5 min
[3]; 10 PPM
  Sterilization Time: 15 min
[3]; 100 PPM
  Sterilization Time: 15 min
[3]; 1000 PPM
  Sterilization Time: 2.5 min
